In brackets after ≈: the same amount, converted by molar mass.
What was measured:
[1] = test system: Mycobacterium tuberculosis; test: Concentration to inhibit of the growth of Mycobacterium tuberculosis at 12.5 ug/ml; assay type: functional
[2] = test system: Mycobacterium tuberculosis; test: Minimum inhibitory concentration against Mycobacterium tuberculosis; assay type: functional

Structure (SMILES)	inhibition at 12.5 µg/mL [1]	MIC [2]
CCC(C)C(=O)N[C@H](Cc1ccccc1)C(=O)N[C@@H]1C(=O)N[C@H](CC(C)C)C(=O)N[C@H](Cc2ccccc2)C(=O)N[C@H](CC(C)C)C(=O)N[C@@H]([C@@H](C)O)C(=O)N[C@@H](CO)C(=O)O[C@@H]1C (some centres undefined)	83%	64 µg/mL (≈ 71.6 µM)
CCCCCC(=O)N[C@H](Cc1ccccc1)C(=O)N[C@@H]1C(=O)N[C@H](CC(C)C)C(=O)N[C@H](Cc2ccccc2)C(=O)N[C@H](CC(C)C)C(=O)N[C@@H]([C@@H](C)O)C(=O)N[C@@H](CO)C(=O)O[C@@H]1C	–	32 µg/mL (≈ 35.2 µM)
CC[C@H](C)C(=O)N[C@H](Cc1ccccc1)C(=O)N[C@@H]1C(=O)N[C@H](CC(C)C)C(=O)N[C@H](Cc2ccccc2)C(=O)N[C@H](CC(C)C)C(=O)N[C@@H]([C@@H](C)O)C(=O)N[C@@H](CO)C(=O)O[C@@H]1C	–	64 µg/mL (≈ 71.6 µM)

Source: ChEMBL document CHEMBL1142691, “Solid-phase total synthesis of kahalalide A and related analogues” (2005)
